Reference: PubChem BioAssay AID248 (DTP/NCI, 2004)
Where “and” joins values, the source holds several entries; their conditions need not be identical. Equal values may be shown once. Inconclusive results and toxic doses are left out. Rule as the data show it: active = T/C of 150% or more; inactive = T/C below 125%.

Test system: L1210 leukemia ip in BDF1 mice, survival T/C
Experiment: NCI In Vivo Anticancer Drug Screen. Data for tumor model L1210 Leukemia (intraperitoneal) in B6D2F1 (BDF1) mice
Settings: endpoint: mean survival time, higher = longer survival
How it was run: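 In this screen, tumor-bearing mice given compound are compared to those given vehicle, and their survival values are reported as a treated-to-control quotient.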

[1] = dose: 100.0 mg/kg/injection, schedule: Q01DX009 (ip), vehicle: Klucel (hydroxypropylcellulose) (HPC)
[2] = dose: 100.0 mg/kg/injection, schedule: Q04DX003 (ip), vehicle: Klucel (hydroxypropylcellulose) (HPC)
[3] = dose: 200.0 mg/kg/injection, schedule: Q01DX009 (ip), vehicle: Klucel (hydroxypropylcellulose) (HPC)
[4] = dose: 200.0 mg/kg/injection, schedule: Q04DX003 (ip), vehicle: Klucel (hydroxypropylcellulose) (HPC)
[5] = dose: 400.0 mg/kg/injection, schedule: Q04DX003 (ip), vehicle: Klucel (hydroxypropylcellulose) (HPC)
[6] = dose: 100.0 mg/kg/injection, schedule: Q01DX001 (ip), vehicle: saline with Tween-80
[7] = dose: 100.0 mg/kg/injection, schedule: Q01DX009 (ip), vehicle: saline with Tween-80
[8] = dose: 100.0 mg/kg/injection, schedule: Q04DX003 (ip), vehicle: saline with Tween-80
[9] = dose: 200.0 mg/kg/injection, schedule: Q01DX001 (ip), vehicle: saline with Tween-80
[10] = dose: 200.0 mg/kg/injection, schedule: Q01DX009 (ip), vehicle: saline with Tween-80
[11] = dose: 200.0 mg/kg/injection, schedule: Q04DX003 (ip), vehicle: saline with Tween-80
[12] = dose: 400.0 mg/kg/injection, schedule: Q01DX001 (ip), vehicle: saline with Tween-80
[13] = dose: 400.0 mg/kg/injection, schedule: Q04DX003 (ip), vehicle: saline with Tween-80
[14] = dose: 100.0 mg/kg/injection, schedule: Q04DX002 (ip), vehicle: Klucel (hydroxypropylcellulose) (HPC)
[15] = dose: 200.0 mg/kg/injection, schedule: Q04DX002 (ip), vehicle: Klucel (hydroxypropylcellulose) (HPC)
[16] = dose: 400.0 mg/kg/injection, schedule: Q04DX002 (ip), vehicle: Klucel (hydroxypropylcellulose) (HPC)
[17] = dose: 400.0 mg/kg/injection, schedule: Q01DX009 (ip), vehicle: Klucel (hydroxypropylcellulose) (HPC)
[18] = dose: 400.0 mg/kg/injection, schedule: Q01DX009 (ip), vehicle: saline with Tween-80
[19] = dose: 100.0 mg/kg/injection, schedule: Q04DX002 (ip), vehicle: saline with Tween-80
[20] = dose: 200.0 mg/kg/injection, schedule: Q04DX002 (ip), vehicle: saline with Tween-80
[21] = dose: 400.0 mg/kg/injection, schedule: Q04DX002 (ip), vehicle: saline with Tween-80
[22] = dose: 100.0 mg/kg/injection, schedule: Q01DX001 (ip), vehicle: Klucel (hydroxypropylcellulose) (HPC)
[23] = dose: 400.0 mg/kg/injection, schedule: Q01DX001 (ip), vehicle: Klucel (hydroxypropylcellulose) (HPC)
[24] = dose: 100.0 mg/kg/injection, schedule: Q01DX001 (ip), vehicle: saline
[25] = dose: 200.0 mg/kg/injection, schedule: Q01DX001 (ip), vehicle: saline
[26] = dose: 400.0 mg/kg/injection, schedule: Q01DX001 (ip), vehicle: saline

Measured: T/C

CCCC(C)Cc1ccc(C(=O)O)cc1 (stereo not drawn)
inactive: [1] 95 % of control | [2] 97 % of control | [3] 104 % of control | [4] 103 % of control | [5] 107 % of control

CC(C)C1CCC(C)(Cl)C2CCC(C)(Cl)CC12 (stereo not drawn)
inactive: dose: 100.0 mg/kg/injection, schedule: Q01DX009 (ip), vehicle: saline 96 % of control | dose: 200.0 mg/kg/injection, schedule: Q01DX009 (ip), vehicle: saline 91 % of control | dose: 400.0 mg/kg/injection, schedule: Q01DX009 (ip), vehicle: saline 89 % of control

CCCN(CCC)/N=N/c1nc[nH]c1C(N)=O
inactive: [6] 95 % of control | [7] 97 % of control | [8] 101 % of control | [9] 98 % of control | [10] 106 % of control | [11] 104 % of control | [12] 113 % of control | [13] 112 % of control

Cc1ccc2nsnc2c1[N+](=O)[O-]
inactive: [14] 107 % of control | [15] 118 % of control | [16] 102 % of control

Oc1c(Br)cc(Br)c2cccnc12
inactive: [1] 100 % of control | dose: 100.0 mg/kg/injection, schedule: Q04DX003 (ip), vehicle: saline 98 % of control | [3] 91 % of control | dose: 200.0 mg/kg/injection, schedule: Q04DX003 (ip), vehicle: saline 102 % of control | [17] 86 % of control | dose: 400.0 mg/kg/injection, schedule: Q04DX003 (ip), vehicle: saline 96 % of control

OC(Cc1cccc(/C=N/N2CCOCC2)n1)(C(F)(F)F)C(F)(F)F
inactive: [7] 91 % of control | [10] 98 % of control | [18] 89 % of control

O=S(=O)(c1ccc(N=NN2CCCC2)cc1)N(CCCl)CCCl
inactive: [19] 101 % of control | [20] 101 % of control | [21] 108 % of control

OCCN1CCC(CCCC2CCN(CCO)CC2)CC1
inactive: dose: 10.0 mg/kg/injection, schedule: Q01DX Z (ip), vehicle: saline 94 % of control | dose: 30.0 mg/kg/injection, schedule: Q01DX Z (ip), vehicle: saline 92 % of control | dose: 100.0 mg/kg/injection, schedule: Q01DX Z (ip), vehicle: saline 94 % of control

CCOC(=N)CC(=N)OCC
inactive: dose: 100.0 mg/kg/injection, schedule: Q01DX009 (ip), vehicle: water 96 % of control | dose: 100.0 mg/kg/injection, schedule: Q04DX003 (ip), vehicle: water 97 % of control | dose: 200.0 mg/kg/injection, schedule: Q01DX009 (ip), vehicle: water 101 % of control | dose: 200.0 mg/kg/injection, schedule: Q04DX003 (ip), vehicle: water 93 % of control | dose: 400.0 mg/kg/injection, schedule: Q01DX009 (ip), vehicle: water 97 % of control | dose: 400.0 mg/kg/injection, schedule: Q04DX003 (ip), vehicle: water 97 % of control

CC1C(C(=O)c2ccc(-c3ccccc3)cc2)N1c1ccccc1 (stereo not drawn)
inactive: [22] 94 % of control | [23] 94 % of control

Cc1ccc(Cl)cc1NS(=O)(=O)c1ccc2ccccc2c1
inactive: [7] 106 % of control | [8] 96 % of control | [10] 96 % of control | [11] 104 % of control | [18] 112 % of control | [13] 91 % of control

CCCCN1C(=O)C(=O)N(c2ccccc2C(F)(F)F)C1=O
inactive: [1] 106 % of control and 88 % of control | [14] 94 % of control and 105 % of control | [3] 106 % of control | [15] 101 % of control and 90 % of control | [17] 107 % of control | [16] 94 % of control and 116 % of control

Nc1cc(C(=O)Nc2ccc(C3=NCCCN3)cc2)ccc1C(=O)Nc1ccc(C2=NCCCN2)cc1
inactive: dose: 7.5 mg/kg/injection, schedule: Q01DX Z (oral), vehicle: saline 97 % of control | dose: 15.0 mg/kg/injection, schedule: Q01DX Z (ip), vehicle: saline 93 % of control | dose: 15.0 mg/kg/injection, schedule: Q01DX Z (oral), vehicle: saline 96 % of control | dose: 30.0 mg/kg/injection, schedule: Q01DX Z (oral), vehicle: saline 97 % of control | dose: 60.0 mg/kg/injection, schedule: Q01DX Z (oral), vehicle: saline 103 % of control

NC(=O)NC1CC(c2ccccc2)C(O)(c2ccccc2)C1 (stereo not drawn)
inactive: dose: 50.0 mg/kg/injection, schedule: Q01DX001 (ip), vehicle: saline 86 % of control | [24] 92 % of control | [25] 90 % of control

ClC1=C(Cl)C2(Cl)C3(Cl)C(Cl)=C(Cl)C(Cl)(C3c3ccccc3)C2(Cl)C1c1ccccc1 (stereo not drawn)
inactive: dose: 50.0 mg/kg/injection, schedule: Q04DX003 (ip), vehicle: Klucel (hydroxypropylcellulose) (HPC) 94 % of control | dose: 100.0 mg/kg/injection, schedule: Q01DX009 (ip), vehicle: saline sonified 96 % of control | [2] 97 % of control | dose: 200.0 mg/kg/injection, schedule: Q01DX009 (ip), vehicle: saline sonified 96 % of control | [4] 89 % of control | dose: 400.0 mg/kg/injection, schedule: Q01DX009 (ip), vehicle: saline sonified 91 % of control

Nc1nc(Cl)c(N=Nc2ccc(Cl)cc2)c(NC2CC(O)C(CO)C2)n1 (stereo not drawn)
inactive: [14] 104 % of control | [15] 100 % of control | [16] 96 % of control

O=S(=O)(O/N=C1\N=C(NOS(=O)(=O)c2ccccc2)c2ccccc21)c1ccccc1
inactive: [6] 87 % of control and 92 % of control | [19] 102 % of control and 90 % of control | [8] 101 % of control | [9] 97 % of control and 91 % of control | [20] 98 % of control and 92 % of control | [11] 94 % of control | [12] 87 % of control and 92 % of control | [21] 112 % of control and 87 % of control | [13] 92 % of control

CCOC(=O)C1=C(NNC(N)=S)C2CCN1CC2
inactive: [24] 105 % of control | [25] 100 % of control | [26] 101 % of control

NC(=O)c1cn[nH]c1N
inactive: [22] 96 % of control | [1] 95 % of control and 87 % of control and 93 % of control | [14] 100 % of control and 102 % of control | [2] 106 % of control and 93 % of control | dose: 200.0 mg/kg/injection, schedule: Q01DX001 (ip), vehicle: Klucel (hydroxypropylcellulose) (HPC) 104 % of control | [3] 93 % of control and 95 % of control | [15] 96 % of control and 120 % of control | [4] 100 % of control and 91 % of control | [23] 96 % of control | [17] 97 % of control and 123 % of control and 93 % of control | [16] 100 % of control and 102 % of control | [5] 87 % of control and 93 % of control

NCC(O)c1ccc(OCc2ccccc2)cc1 (stereo not drawn)
inactive: [24] 94 % of control | [25] 103 % of control | [26] 108 % of control
